According to patent US9963473B2, “Stabilized form of tetrofosmin and its use” (priority 2014, dated 2018):

How the values were obtained:
[1] = Hygroscopicity (open vial, change of weight); format: physicochemical
Source text: An open vial of Tetrofosmin x 2 HBF4 was stored at room temperature, normal atmosphere and 50% humidity.

[2] = Storage stability of Tetrofosmin x 2 HBF4 (1H and 31P NMR spectra); format: physicochemical
Method: Tetrofosmin x 2 HBF4 was stored at room temperature without protective gas (e. g. argon or nitrogen). In accordance to example 1, the ^1H and ^31P spectra were unchanged after 12 months.
Moreover, Tetrofosmin x 2 HBF4 was heated in a normal atmosphere (with oxygen) at 50° C. for 6 hours.

| Molecule | physical nature / hygroscopicity ([1]; own experiments of the inventors) | 1H and 31P spectra after heating ([2]; normal atmosphere (with oxygen), 50° C. for 6 hours) | 1H and 31P spectra after storage ([2]; room temperature, without protective gas, after 12 months) | change of weight (hygroscopicity) ([1]; open vial, room temperature, normal atmosphere, 50% humidity, after 72 h) |
| --- | --- | --- | --- | --- |
| CCOCCP(CCOCC)CCP(CCOCC)CCOCC.Cl [Tetrofosmin hydrochloride, reference compound] | oily and hygrospcopic |  |  |  |
| Tetrofosmin x 2 HBF4 |  | no sign of degradation | unchanged | no change of weight |
